Data on 15 molecules can be found in patent US11446287B2, “Compounds and methods for EP300 or CBP modulation and indications therefor” (Opna Immuno-Oncology SA, priority 2019, dated 2022).

In the test the target is T1, Recombinant human EP300 containing the bromodomain (EP300-BD (1040-1161)) (Homo sapiens, UniProt Q09472).
T1 construct: Recombinant human EP300 bromodomain (EP300-BD (1040-1161)); made in house; host or cells: E. coli BL21-CodonPlus (DE3), modified pET vector
T1 sequence (Q09472 1040-1161): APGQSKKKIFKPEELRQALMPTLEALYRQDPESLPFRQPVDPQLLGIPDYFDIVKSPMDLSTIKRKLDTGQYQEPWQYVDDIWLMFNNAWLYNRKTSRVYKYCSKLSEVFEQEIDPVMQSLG
Briefly: EP300 Alphascreen binding assay. In short, it runs like this:
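Displacement of a biotinylated acetyl-K56 histone H3 peptide from the N-His bromodomain construct (1040-1161) measured by AlphaScreen proximity, beads at 7.5 μg/ml final, read 60 min after addition. Protein, peptide and compound first incubated 1 h at room temperature, pH 7.5 HEPES buffer; IC50 by four-parameter logistic fit.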
With `CNS(=O)(=O)c1cccc(-c2cn(Cc3ccccc3)c3ncc(-c4c(C)noc4C)cc23)c1` [P-0082, 3-(1-benzyl-5-(3,5-dimethylisoxazol-4-yl)-1H-pyrrolo[2,3-b]pyridin-3-yl)-N-methylbenzenesulfonamide], the IC50 lay in the range of 1 to 8 µM.

With `Cc1noc(C)c1-c1cnc2c(c1)c(-c1cccc(S(=O)(=O)NC3CC3)c1)cn2Cc1ccccc1` [P-0083, 3-(1-benzyl-5-(3,5-dimethylisoxazol-4-yl)-1H-pyrrolo[2,3-b]pyridin-3-yl)-N-cyclopropylbenzenesulfonamide], the IC50 fell in the range of 0.0001 to 1 µM.

For the molecule `Cc1noc(C)c1-c1cnc2c(C(=O)C3CC3)c(O)n(-c3ccnc(C(=O)O)c3)c2c1` [P-0084, 4-(3-(cyclopropanecarbonyl)-6-(3,5-dimethylisoxazol-4-yl)-2-hydroxy-1H-pyrrolo[3,2-b]pyridin-1-yl)picolinic acid], the IC50 was in the range of 0.0001 to 1 µM.

Regarding `Cc1noc(C)c1-c1cnc2c(c1)c(-c1cccc(C(=O)O)c1)cn2C(=O)c1ccccc1` [P-0085, 3-(1-benzoyl-5-(3,5-dimethylisoxazol-4-yl)-1H-pyrrolo[2,3-b]pyridin-3-yl)benzoic acid], the IC50 is 0.0001 to 1 µM.

Take `Cc1noc(C)c1-c1cnc2c(CC3CCC3)cn(-c3c(C(=O)O)ccc(Br)c3F)c2c1` [P-0086, 4-bromo-2-(3-(cyclobutylmethyl)-6-(3,5-dimethylisoxazol-4-yl)-1H-pyrrolo[3,2-b]pyridin-1-yl)-3-fluorobenzoic acid]: the IC50 lay in the range of 0.0001 to 1 µM.

Consider `COc1c(-n2cc(CC3CCC3)c3ncc(-c4c(C)noc4C)cc32)ccc(C(=O)O)c1F` [P-0087, 4-(3-(cyclobutylmethyl)-6-(3,5-dimethylisoxazol-4-yl)-1H-pyrrolo[3,2-b]pyridin-1-yl)-2-fluoro-3-methoxybenzoic acid], for which the IC50 lay within 0.0001 to 1 µM.

With `Cc1noc(C)c1-c1cnc2c(C(=O)c3cccc(Cl)c3)cn(-c3ccnc(C(=O)O)c3)c2c1` [P-0088, 4-(3-(3-chlorobenzoyl)-6-(3,5-dimethylisoxazol-4-yl)-1H-pyrrolo[3,2-b]pyridin-1-yl)picolinic acid], the IC50 lay in the range of 0.0001 to 1 µM.

Turning to `Cc1noc(C)c1-c1cnc2c(C(=O)c3ccccc3Cl)cn(-c3ccnc(C(=O)O)c3)c2c1` [P-0089, 4-(3-(2-chlorobenzoyl)-6-(3,5-dimethylisoxazol-4-yl)-1H-pyrrolo[3,2-b]pyridin-1-yl)picolinic acid], the concentration for half-maximal inhibition (IC50) fell in the range of 0.0001 to 1 µM.

On to `Cc1noc(C)c1-c1cnc2c(Cc3cccc(Cl)c3)cn(-c3ccnc(C(=O)O)c3)c2c1` [P-0090, 4-(3-(3-chlorobenzyl)-6-(3,5-dimethylisoxazol-4-yl)-1H-pyrrolo[3,2-b]pyridin-1-yl)picolinic acid], for which the concentration for half-maximal inhibition (IC50) lay within 0.0001 to 1 µM.

Take `Cc1noc(C)c1-c1cnc2c(Cc3ccccc3Cl)cn(-c3ccnc(C(=O)O)c3)c2c1` [P-0091, 4-(3-(2-chlorobenzyl)-6-(3,5-dimethylisoxazol-4-yl)-1H-pyrrolo[3,2-b]pyridin-1-yl)picolinic acid]: the IC50 is 0.0001 to 1 µM.

For the molecule `Cc1noc(C)c1-c1cnc2c(c1)c(-c1cccc(C(=O)NS(C)(=O)=O)c1)cn2Cc1ccccc1` [P-0092, 3-(1-benzyl-5-(3,5-dimethylisoxazol-4-yl)-1H-pyrrolo[2,3-b]pyridin-3-yl)-N-(methylsulfonyl)benzamide], the half-inhibitory concentration (IC50) is 0.0001 to 1 µM.

Take `Cc1noc(C)c1-c1cnc2c(c1)c(C1=CCC(C(=O)O)CC1)cn2Cc1ccccc1` (stereo not drawn) [P-0093, 4-(1-benzyl-5-(3,5-dimethylisoxazol-4-yl)-1H-pyrrolo[2,3-b]pyridin-3-yl)cyclohex-3-ene-1-carboxylic acid]: the 50% inhibitory concentration (IC50) was 0.0001 to 1 µM.

Take `Cc1noc(C)c1-c1cnc2c(c1)c(-c1c(F)cc(C(=O)O)cc1F)cn2C(C)c1ccccn1` (stereo not drawn) [P-0094, 4-(5-(3,5-dimethylisoxazol-4-yl)-1-(1-(pyridin-2-yl)ethyl)-1H-pyrrolo[2,3-b]pyridin-3-yl)-3,5-difluorobenzoic acid]: the IC50 lay in the range of 0.0001 to 1 µM.

For the molecule `Cc1noc(C)c1-c1cnc2c(c1)c(-c1c(Cl)cc(C(=O)O)cc1Cl)cn2C(C)c1ccccn1` (stereo not drawn) [P-0095, 3,5-dichloro-4-(5-(3,5-dimethylisoxazol-4-yl)-1-(1-(pyridin-2-yl)ethyl)-1H-pyrrolo[2,3-b]pyridin-3-yl)benzoic acid], the IC50 fell in the range of 0.0001 to 1 µM.

As for `Cc1noc(C)c1-c1cnc2c(c1)c(-c1c(F)ccc(NS(C)(=O)=O)c1F)cn2C(C)c1ccccn1` (stereo not drawn) [P-0096, N-(3-(5-(3,5-dimethylisoxazol-4-yl)-1-(1-(pyridin-2-yl)ethyl)-1H-pyrrolo[2,3-b]pyridin-3-yl)-2,4-difluorophenyl)methanesulfonamide], the 50% inhibitory concentration (IC50) was in the range of 0.0001 to 1 µM.
